Reference: patent US11629171B2, “Beta-hairpin peptidomimetics” (POLYPHOR AG, priority 2017, dated 2023)
≈ marks a conversion by molar mass, not a printed value. Where a SMILES comes first, the peptide text is derived from it. Bridges are numbered along the chain shown (N, C = ends). Roman numbers before positions name the chains, in order. [ ]: non-standard residue; d: D form. Tle = CC(C)(C)[C@H](N)C(=O)O; Hiv = CC(C)[C@H](O)C(=O)O; dDab = NCC[C@@H](N)C(=O)O; Dab = NCC[C@H](N)C(=O)O; Dap = NC[C@H](N)C(=O)O

Tests used:
Type in all cases: cell-based
[1] = test system: human red blood cells (hRBC); experiment: Hemolysis; conditions: red cells of human, 1 h, 200
How it was run: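 Read-out is supernatant absorbance at 540 nm, normalised to full lysis by 2% Triton X-100 and zero lysis by PBS with 10% water. Peptides (200 μg/mL) were exposed to 20% v/v washed human erythrocytes at 37° C for 1 h under shaking.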

[2] = test system: Escherichia coli ATCC 25922; conditions: ATCC 25922
How it was run: (§1)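 Broth microdilution per CLSI; MH-II (cation-adjusted) + 0.002% P-80 final; ~10^6 CFU/mL inoculum; 2-fold peptide series; 35° C, 18-20 h; MIC = no visible growth, μg/mL.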

[3] = test system: Acinetobacter baumannii DSM 30008; conditions: DSM 30008
How it was run: as §1

[4] = test system: Escherichia coli 926415; conditions: 926415
How it was run: as §1

[5] = test system: Klebsiella pneumoniae 968733; conditions: 968733
How it was run: as §1

[6] = test system: Pseudomonas aeruginosa ATCC 27853; conditions: ATCC 27853
How it was run: as §1

[7] = test system: Enterobacter cloacae 848840; conditions: 848840
How it was run: as §1

[8] = test system: Klebsiella pneumoniae SSI #3010; conditions: SSI #3010
How it was run: as §1

[9] = test system: Acinetobacter baumannii 872842; conditions: 872842
How it was run: as §1

## CC(=O)N[C@H](C(=O)N[C@H]1CSSC[C@@H](C(=O)N[C@@H](CO)C(=O)N[C@@H](CC(=O)O)C(N)=O)NC(=O)[C@H](C(C)C)NC(=O)[C@H](CO)NC(=O)[C@H](Cc2c[nH]c3ccccc23)NC(=O)[C@H](CCN)NC(=O)[C@@H](CCN)NC(=O)[C@H](CCC(=O)N[C@@H](CCN)C(=O)N[C@H](C(=O)N[C@@H](CN)C(=O)N[C@H]2CCNC(=O)[C@H]([C@@H](C)O)NC(=O)[C@H](CCN)NC(=O)[C@H](CCN)NC(=O)[C@H](CC(C)C)NC(=O)[C@@H](CC(C)C)NC(=O)[C@H](CCN)NC2=O)[C@@H](C)O)NC(=O)[C@H](CO)NC(=O)[C@H](Cc2ccc(O)cc2)NC1=O)C(C)C [Ex. 371] (I: Ac-VCYSE[dDab][Dab]WSVCSD-NH2 / II: [Dab]T[Dap][Dab][Dab][dL]L[Dab][Dab]T; disulfide I:2-I:11; amide I:5-II:N; lactam II:4-II:C)
[1]
  Hemolysis at 200 μg/mL: 0%
[2]
  Escherichia coli ATCC 25922 MIC: 0.0625 µg/mL
[3]
  Acinetobacter baumannii DSM 30008 MIC: 0.0625 µg/mL
[4]
  MIC: 0.25 µg/mL (≈ 0.0994 µM)
[5]
  MIC: 0.5 µg/mL (≈ 0.199 µM)
[6]
  Pseudomonas aeruginosa ATCC 27853 MIC: 0.0625 µg/mL
[7]
  MIC: 0.5 µg/mL (≈ 0.199 µM)
[8]
  Klebsiella pneumoniae SSI #3010 MIC: 0.0625 µg/mL
[9]
  MIC: 0.0625 µg/mL (≈ 0.0249 µM)

## CC(C)C[C@@H]1NC(=O)[C@@H](CC(C)C)NC(=O)[C@H](CCN)NC(=O)[C@@H](NC(=O)[C@H](CN)NC(=O)[C@@H](NC(=O)[C@H](CCN)NC(=O)CC[C@@H]2NC(=O)[C@H](CO)NC(=O)[C@H](Cc3ccc(O)cc3)NC(=O)[C@@H](NC(=O)[C@@H](O)C(C)C)CSSC[C@@H](C(=O)N[C@@H](CO)C(=O)N[C@@H](CC(=O)O)C(N)=O)NC(=O)[C@H](C(C)(C)C)NC(=O)[C@H](CO)NC(=O)[C@H](Cc3c[nH]c4ccccc34)NC(=O)[C@H](CCN)NC(=O)[C@@H](CCN)NC2=O)[C@@H](C)O)CCNC(=O)[C@H]([C@@H](C)O)NC(=O)[C@H](CCN)NC(=O)[C@H](CCN)NC1=O [Ex. 372] (I: H-[Hiv]CYSE[dDab][Dab]WS[Tle]CSD-NH2 / II: [Dab]T[Dap][Dab][Dab][dL]L[Dab][Dab]T; disulfide I:2-I:11; amide I:5-II:N; lactam II:4-II:C)
[1]
  Hemolysis at 200 μg/mL: <1%
[2]
  Escherichia coli ATCC 25922 MIC: 0.0625 µg/mL
[3]
  Acinetobacter baumannii DSM 30008 MIC: 0.03125 µg/mL
[4]
  MIC: 0.125 µg/mL (≈ 0.0503 µM)
[5]
  MIC: 0.25 µg/mL (≈ 0.101 µM)
[6]
  Pseudomonas aeruginosa ATCC 27853 MIC: 0.0625 µg/mL
[7]
  MIC: 0.25 µg/mL (≈ 0.101 µM)
[8]
  Klebsiella pneumoniae SSI #3010 MIC: 0.0625 µg/mL
[9]
  MIC: 0.125 µg/mL (≈ 0.0503 µM)

## CC(=O)N[C@H](C(=O)N[C@H]1CSSC[C@@H](C(=O)N[C@@H](CO)C(=O)N[C@@H](CC(N)=O)C(N)=O)NC(=O)[C@H](C(C)C)NC(=O)[C@H](CO)NC(=O)[C@H](Cc2c[nH]c3ccccc23)NC(=O)[C@H](CCN)NC(=O)[C@@H](CCN)NC(=O)[C@H](CCC(=O)N[C@@H](CCN)C(=O)N[C@H](C(=O)N[C@@H](CN)C(=O)N[C@H]2CCNC(=O)[C@H]([C@@H](C)O)NC(=O)[C@H](CCN)NC(=O)[C@H](CCN)NC(=O)[C@H](CC(C)C)NC(=O)[C@@H](CC(C)C)NC(=O)[C@H](CCN)NC2=O)[C@@H](C)O)NC(=O)[C@H](CO)NC(=O)[C@H](Cc2ccc(O)cc2)NC1=O)C(C)C [Ex. 373] (I: Ac-VCYSE[dDab][Dab]WSVCSN-NH2 / II: [Dab]T[Dap][Dab][Dab][dL]L[Dab][Dab]T; disulfide I:2-I:11; amide I:5-II:N; lactam II:4-II:C)
[1]
  Hemolysis at 200 μg/mL: <1%
[2]
  Escherichia coli ATCC 25922 MIC: 0.0625 µg/mL
[3]
  Acinetobacter baumannii DSM 30008 MIC: 0.03125 µg/mL
[4]
  MIC: 0.125 µg/mL (≈ 0.0497 µM)
[5]
  MIC: 0.125 µg/mL (≈ 0.0497 µM)
[6]
  Pseudomonas aeruginosa ATCC 27853 MIC: 0.0625 µg/mL
[7]
  MIC: 0.25 µg/mL (≈ 0.0995 µM)
[8]
  Klebsiella pneumoniae SSI #3010 MIC: 0.0625 µg/mL
[9]
  MIC: 0.0625 µg/mL (≈ 0.0249 µM)
